System: KRAS PDC multicell spheroid viability
Assay: Anticancer human tumor 521955-158-R6-J3-PDC patient-derived pancreatic carcinoma cell line growth inhibition [KRAS2]
Conditions: for IC50: curve of first compound; for viability, T/C: stronger effect = lower value
Outline: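 KRAS-mutant tumor cells were grown as spheroids with HUVEC endothelial cells and human MSCs as stroma. Targeted agents were tested alone and with KRAS pathway inhibitors. Doses started at or near clinical Cmax, or 10 microM, descending half-log.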
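Also: drug exposure lasted seven days.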
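For viability, T/C in this document: 100% = DMSO vehicle wells and lower means fewer viable cells.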

## CC1OCC2(CCN(c3cnc(Sc4ccnc(N)c4Cl)c(N)n3)CC2)C1N (stereo not given) + COc1cc2nc(C)nc(NC(C)c3cc(N)cc(C(F)(F)F)c3)c2cc1OC1CCOC1
Second compound 0.1 µM
  IC50: > 10 µM
Second compound 0.316 µM
  IC50: > 10 µM
Second compound 1 µM
  IC50: > 10 µM
Second compound 3.16 µM
  IC50: > 10 µM
Second compound 10 µM
  IC50: < 0.0316 µM
Second compound 0.1 µM, first compound 0.0316 µM
  viability, T/C: 90.6%
Second compound 0.1 µM, first compound 0.1 µM
  viability, T/C: 82.6%
Second compound 0.1 µM, first compound 0.316 µM
  viability, T/C: 74.8%
Second compound 0.1 µM, first compound 1 µM
  viability, T/C: 86.5%
Second compound 0.1 µM, first compound 3.16 µM
  viability, T/C: 116%
Second compound 0.1 µM, first compound 10 µM
  viability, T/C: 114%
Second compound 0.316 µM, first compound 0.0316 µM
  viability, T/C: 82.6%
Second compound 0.316 µM, first compound 0.1 µM
  viability, T/C: 86.1%
Second compound 0.316 µM, first compound 0.316 µM
  viability, T/C: 96.8%
Second compound 0.316 µM, first compound 1 µM
  viability, T/C: 87.5%
Second compound 0.316 µM, first compound 3.16 µM
  viability, T/C: 112%
Second compound 0.316 µM, first compound 10 µM
  viability, T/C: 118%
Second compound 1 µM, first compound 0.0316 µM
  viability, T/C: 78%
Second compound 1 µM, first compound 0.1 µM
  viability, T/C: 82.1%
Second compound 1 µM, first compound 0.316 µM
  viability, T/C: 85%
Second compound 1 µM, first compound 1 µM
  viability, T/C: 83.7%
Second compound 1 µM, first compound 3.16 µM
  viability, T/C: 103%
Second compound 1 µM, first compound 10 µM
  viability, T/C: 124%
Second compound 3.16 µM, first compound 0.0316 µM
  viability, T/C: 76.5%
Second compound 3.16 µM, first compound 0.1 µM
  viability, T/C: 79.7%
Second compound 3.16 µM, first compound 0.316 µM
  viability, T/C: 77.2%
Second compound 3.16 µM, first compound 1 µM
  viability, T/C: 76.9%
Second compound 3.16 µM, first compound 3.16 µM
  viability, T/C: 99.2%
Second compound 3.16 µM, first compound 10 µM
  viability, T/C: 94.6%
Second compound 10 µM, first compound 0.0316 µM
  viability, T/C: 43.7%
Second compound 10 µM, first compound 0.1 µM
  viability, T/C: 34%
Second compound 10 µM, first compound 0.316 µM
  viability, T/C: 35.8%
Second compound 10 µM, first compound 1 µM
  viability, T/C: 27.1%
Second compound 10 µM, first compound 3.16 µM
  viability, T/C: 34.1%
Second compound 10 µM, first compound 10 µM
  viability, T/C: 18%

— PubChem BioAssay AID1963864 (Molecular Pharmacology Branch, DTP, NCI, 2024)
